Results from publication PMC9288506, “Compounds activating VCP D1 ATPase enhance both autophagic and proteasomal neurotoxic protein clearance” (Nature Communications, 2022).

Key:
PLK1 = PLK1 (Homo sapiens, UniProt P53350); test: biochemical; design: Thermo Fisher in vitro kinase panel, per cent inhibition of kinase activity at 10 uM
Experimental: (§1) Kinase profiling of SMER28 and analogs SMER28 and analogs were tested at 10 µM in a panel of 123 kinases at ThermoFisher Scientific. Follow-up of selected kinases for SMER28 and analogs was also performed at ThermoFisher Scientific. Data are shown in Supplementary Data 2 and 3. […] An inhibition of PIK3C could induce autophagy, mediated by signaling through the AKT/mTOR axis[45].

KIT = KIT (Homo sapiens, UniProt P10721); test: biochemical; design: Thermo Fisher in vitro kinase panel, per cent inhibition of kinase activity at 10 uM
Experimental: as §1

PAK1 = PAK1 (Homo sapiens, UniProt Q13153); test: biochemical; design: Thermo Fisher in vitro kinase panel, per cent inhibition of kinase activity at 10 uM
PAK1, sequence (Q13153 whole entry): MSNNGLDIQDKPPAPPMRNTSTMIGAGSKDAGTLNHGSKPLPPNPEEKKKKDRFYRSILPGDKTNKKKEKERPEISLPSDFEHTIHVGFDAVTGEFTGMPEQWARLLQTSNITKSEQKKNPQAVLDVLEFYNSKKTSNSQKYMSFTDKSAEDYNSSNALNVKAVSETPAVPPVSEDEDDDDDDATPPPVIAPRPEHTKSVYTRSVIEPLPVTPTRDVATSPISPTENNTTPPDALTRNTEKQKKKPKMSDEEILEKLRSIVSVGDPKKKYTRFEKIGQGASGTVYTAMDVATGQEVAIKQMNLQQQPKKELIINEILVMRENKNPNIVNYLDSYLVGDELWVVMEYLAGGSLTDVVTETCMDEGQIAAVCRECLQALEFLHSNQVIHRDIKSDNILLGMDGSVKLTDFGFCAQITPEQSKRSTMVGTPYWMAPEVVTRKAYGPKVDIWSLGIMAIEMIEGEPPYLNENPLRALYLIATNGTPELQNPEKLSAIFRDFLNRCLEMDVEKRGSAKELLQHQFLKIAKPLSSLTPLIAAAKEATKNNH
Experimental: as §1

MST1R (RON) = MST1R (RON) (Homo sapiens, UniProt Q04912); test: biochemical; design: Thermo Fisher in vitro kinase panel, per cent inhibition of kinase activity at 10 uM
Experimental: as §1

ROCK1 = ROCK1 (Homo sapiens, UniProt Q13464); test: biochemical; design: Thermo Fisher in vitro kinase panel, per cent inhibition of kinase activity at 10 uM
Experimental: as §1

NTRK1 (TRKA) = NTRK1 (TRKA) (Homo sapiens, UniProt P04629); test: biochemical; design: Thermo Fisher in vitro kinase panel, per cent inhibition of kinase activity at 10 uM
NTRK1 (TRKA), sequence (P04629 whole entry): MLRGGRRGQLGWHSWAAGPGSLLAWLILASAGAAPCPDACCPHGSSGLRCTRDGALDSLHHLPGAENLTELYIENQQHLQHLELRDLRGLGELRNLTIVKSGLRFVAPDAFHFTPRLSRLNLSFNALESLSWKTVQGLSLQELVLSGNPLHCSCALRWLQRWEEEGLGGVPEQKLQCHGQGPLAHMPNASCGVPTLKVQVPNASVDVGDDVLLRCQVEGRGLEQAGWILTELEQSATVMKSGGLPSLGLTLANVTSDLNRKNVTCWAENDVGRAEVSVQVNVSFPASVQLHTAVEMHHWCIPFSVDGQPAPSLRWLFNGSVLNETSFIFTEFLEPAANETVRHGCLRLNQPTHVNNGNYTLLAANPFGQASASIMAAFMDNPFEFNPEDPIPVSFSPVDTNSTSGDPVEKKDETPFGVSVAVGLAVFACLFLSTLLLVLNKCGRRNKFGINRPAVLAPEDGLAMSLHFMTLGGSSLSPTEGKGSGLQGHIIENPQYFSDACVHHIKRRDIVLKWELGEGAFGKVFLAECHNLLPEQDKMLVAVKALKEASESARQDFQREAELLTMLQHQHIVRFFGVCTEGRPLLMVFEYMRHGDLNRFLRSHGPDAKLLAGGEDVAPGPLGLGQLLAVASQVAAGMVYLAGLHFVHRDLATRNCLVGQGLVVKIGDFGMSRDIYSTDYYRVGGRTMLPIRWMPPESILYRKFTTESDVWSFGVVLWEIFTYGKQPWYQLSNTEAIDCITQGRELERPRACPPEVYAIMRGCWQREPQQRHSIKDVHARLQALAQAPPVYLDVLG
Experimental: as §1

YES1 = YES1 (Homo sapiens, UniProt P07947); test: biochemical; design: Thermo Fisher in vitro kinase panel, per cent inhibition of kinase activity at 10 uM
Experimental: as §1

IGF1R = IGF1R (Homo sapiens, UniProt P08069); test: biochemical; design: Thermo Fisher in vitro kinase panel, per cent inhibition of kinase activity at 10 uM
Experimental: as §1

MARK1 (MARK) = MARK1 (MARK) (Homo sapiens, UniProt Q9P0L2); test: biochemical; design: Thermo Fisher in vitro kinase panel, per cent inhibition of kinase activity at 10 uM
Experimental: as §1

MAPKAPK5 (PRAK) = MAPKAPK5 (PRAK) (Homo sapiens, UniProt Q8IW41); test: biochemical; design: Thermo Fisher in vitro kinase panel, per cent inhibition of kinase activity at 10 uM
MAPKAPK5 (PRAK), sequence (Q8IW41 whole entry): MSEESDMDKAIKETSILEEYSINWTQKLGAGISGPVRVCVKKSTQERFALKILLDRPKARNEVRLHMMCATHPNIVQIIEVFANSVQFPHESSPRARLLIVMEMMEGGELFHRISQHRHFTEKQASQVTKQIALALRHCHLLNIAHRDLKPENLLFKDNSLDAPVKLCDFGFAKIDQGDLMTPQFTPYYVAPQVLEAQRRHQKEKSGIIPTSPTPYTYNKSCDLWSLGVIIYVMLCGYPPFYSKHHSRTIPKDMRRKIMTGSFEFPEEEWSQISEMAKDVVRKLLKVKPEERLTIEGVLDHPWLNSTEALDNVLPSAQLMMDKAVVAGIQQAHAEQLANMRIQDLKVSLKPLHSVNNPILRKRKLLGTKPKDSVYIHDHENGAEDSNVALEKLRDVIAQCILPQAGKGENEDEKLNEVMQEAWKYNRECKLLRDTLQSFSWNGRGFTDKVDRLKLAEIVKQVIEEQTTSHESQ
Experimental: as §1

[1] = biological target: PIK3CA/PIK3R1 (p110 alpha/p85 alpha) (Homo sapiens, UniProt P42336); test: biochemical; design: Thermo Fisher in vitro kinase panel, per cent inhibition of kinase activity at 10 uM
Experimental: as §1

RET = RET (Homo sapiens, UniProt P07949); test: biochemical; design: Thermo Fisher in vitro kinase panel, per cent inhibition of kinase activity at 10 uM
RET, sequence (P07949 whole entry): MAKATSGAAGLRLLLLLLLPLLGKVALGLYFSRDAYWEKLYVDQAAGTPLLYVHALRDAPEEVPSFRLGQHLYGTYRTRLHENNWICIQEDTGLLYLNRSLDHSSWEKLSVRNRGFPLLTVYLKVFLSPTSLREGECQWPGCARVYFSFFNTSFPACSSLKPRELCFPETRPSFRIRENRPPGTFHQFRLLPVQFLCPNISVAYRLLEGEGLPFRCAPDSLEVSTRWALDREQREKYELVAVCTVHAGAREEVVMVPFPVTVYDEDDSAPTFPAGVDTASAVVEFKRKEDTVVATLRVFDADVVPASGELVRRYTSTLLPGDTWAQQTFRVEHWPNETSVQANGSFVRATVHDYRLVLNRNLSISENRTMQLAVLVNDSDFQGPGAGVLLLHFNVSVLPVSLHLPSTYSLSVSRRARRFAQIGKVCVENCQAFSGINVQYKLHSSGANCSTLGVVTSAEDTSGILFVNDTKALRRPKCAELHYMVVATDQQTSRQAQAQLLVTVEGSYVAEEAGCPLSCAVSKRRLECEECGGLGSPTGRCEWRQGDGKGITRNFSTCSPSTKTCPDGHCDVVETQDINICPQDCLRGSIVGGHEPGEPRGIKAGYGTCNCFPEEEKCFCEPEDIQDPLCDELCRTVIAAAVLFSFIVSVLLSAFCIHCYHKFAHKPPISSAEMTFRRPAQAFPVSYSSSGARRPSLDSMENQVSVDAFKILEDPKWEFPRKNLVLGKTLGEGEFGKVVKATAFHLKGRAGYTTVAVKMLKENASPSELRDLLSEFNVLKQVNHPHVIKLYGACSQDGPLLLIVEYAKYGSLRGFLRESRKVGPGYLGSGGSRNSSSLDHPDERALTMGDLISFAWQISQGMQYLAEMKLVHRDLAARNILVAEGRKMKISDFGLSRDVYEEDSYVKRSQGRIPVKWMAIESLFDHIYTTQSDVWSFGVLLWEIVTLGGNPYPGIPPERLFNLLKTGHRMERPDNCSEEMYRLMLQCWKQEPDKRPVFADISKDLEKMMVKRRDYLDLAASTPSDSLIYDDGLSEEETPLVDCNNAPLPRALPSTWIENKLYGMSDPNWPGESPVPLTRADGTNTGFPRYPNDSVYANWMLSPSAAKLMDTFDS
Experimental: as §1

ABL2 (Arg) = ABL2 (Arg) (Homo sapiens, UniProt P42684); test: biochemical; design: Thermo Fisher in vitro kinase panel, per cent inhibition of kinase activity at 10 uM
Experimental: as §1

RET V804M = RET V804M (Homo sapiens, UniProt P07949, V804M); test: biochemical; design: Thermo Fisher in vitro kinase panel, per cent inhibition of kinase activity at 10 uM
RET V804M, sequence (P07949 whole entry V804M): as the sequence (P07949 whole entry) above, with V804M counted along it
Experimental: as §1

JAK3 = JAK3 (Homo sapiens, UniProt P52333); test: biochemical; design: Thermo Fisher in vitro kinase panel, per cent inhibition of kinase activity at 10 uM
Experimental: as §1

LCK = LCK (Homo sapiens, UniProt P06239); test: biochemical; design: Thermo Fisher in vitro kinase panel, per cent inhibition of kinase activity at 10 uM
Experimental: as §1

SGK (SGK1) = SGK (SGK1) (Homo sapiens, UniProt O00141); test: biochemical; design: Thermo Fisher in vitro kinase panel, per cent inhibition of kinase activity at 10 uM
Experimental: as §1

PDGFRB (PDGFR beta) = PDGFRB (PDGFR beta) (Homo sapiens, UniProt P09619); test: biochemical; design: Thermo Fisher in vitro kinase panel, per cent inhibition of kinase activity at 10 uM
Experimental: as §1

AKT1 (PKB alpha) = AKT1 (PKB alpha) (Homo sapiens, UniProt P31749); test: biochemical; design: Thermo Fisher in vitro kinase panel, per cent inhibition of kinase activity at 10 uM
Experimental: as §1

PAK4 = PAK4 (Homo sapiens, UniProt O96013); test: biochemical; design: Thermo Fisher in vitro kinase panel, per cent inhibition of kinase activity at 10 uM
PAK4, sequence (O96013 whole entry): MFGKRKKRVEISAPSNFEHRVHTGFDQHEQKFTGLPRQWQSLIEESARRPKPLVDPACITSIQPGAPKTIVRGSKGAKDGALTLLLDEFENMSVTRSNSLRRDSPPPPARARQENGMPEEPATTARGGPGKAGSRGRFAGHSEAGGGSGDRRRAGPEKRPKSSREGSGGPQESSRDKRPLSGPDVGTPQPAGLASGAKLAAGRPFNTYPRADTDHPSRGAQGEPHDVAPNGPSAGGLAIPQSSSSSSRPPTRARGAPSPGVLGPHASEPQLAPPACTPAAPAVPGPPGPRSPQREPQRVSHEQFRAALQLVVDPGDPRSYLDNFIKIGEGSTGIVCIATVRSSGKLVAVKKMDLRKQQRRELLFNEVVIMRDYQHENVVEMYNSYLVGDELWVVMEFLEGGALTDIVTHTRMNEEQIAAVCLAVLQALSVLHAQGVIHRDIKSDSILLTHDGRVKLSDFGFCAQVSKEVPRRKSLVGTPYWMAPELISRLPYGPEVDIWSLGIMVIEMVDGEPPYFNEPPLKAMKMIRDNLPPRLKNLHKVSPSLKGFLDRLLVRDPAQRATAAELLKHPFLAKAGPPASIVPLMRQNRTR
Experimental: as §1

PIK3CG (p110 gamma) = PIK3CG (p110 gamma) (Homo sapiens, UniProt P48736); test: biochemical; design: Thermo Fisher in vitro kinase panel, per cent inhibition of kinase activity at 10 uM
Experimental: as §1

PRKCA (PKC alpha) = PRKCA (PKC alpha) (Homo sapiens, UniProt P17252); test: biochemical; design: Thermo Fisher in vitro kinase panel, per cent inhibition of kinase activity at 10 uM
Experimental: as §1

[2] = biological target: T1, VCP (p97, Valosin-containing protein) (Homo sapiens, UniProt P55072); test: SPR (also DARTS, LiP-MS, competition pulldown, ATPase activation); format: binding
T1 construct: Full-length VCP (6xHis-tag)
T1 sequence (P55072 2-806): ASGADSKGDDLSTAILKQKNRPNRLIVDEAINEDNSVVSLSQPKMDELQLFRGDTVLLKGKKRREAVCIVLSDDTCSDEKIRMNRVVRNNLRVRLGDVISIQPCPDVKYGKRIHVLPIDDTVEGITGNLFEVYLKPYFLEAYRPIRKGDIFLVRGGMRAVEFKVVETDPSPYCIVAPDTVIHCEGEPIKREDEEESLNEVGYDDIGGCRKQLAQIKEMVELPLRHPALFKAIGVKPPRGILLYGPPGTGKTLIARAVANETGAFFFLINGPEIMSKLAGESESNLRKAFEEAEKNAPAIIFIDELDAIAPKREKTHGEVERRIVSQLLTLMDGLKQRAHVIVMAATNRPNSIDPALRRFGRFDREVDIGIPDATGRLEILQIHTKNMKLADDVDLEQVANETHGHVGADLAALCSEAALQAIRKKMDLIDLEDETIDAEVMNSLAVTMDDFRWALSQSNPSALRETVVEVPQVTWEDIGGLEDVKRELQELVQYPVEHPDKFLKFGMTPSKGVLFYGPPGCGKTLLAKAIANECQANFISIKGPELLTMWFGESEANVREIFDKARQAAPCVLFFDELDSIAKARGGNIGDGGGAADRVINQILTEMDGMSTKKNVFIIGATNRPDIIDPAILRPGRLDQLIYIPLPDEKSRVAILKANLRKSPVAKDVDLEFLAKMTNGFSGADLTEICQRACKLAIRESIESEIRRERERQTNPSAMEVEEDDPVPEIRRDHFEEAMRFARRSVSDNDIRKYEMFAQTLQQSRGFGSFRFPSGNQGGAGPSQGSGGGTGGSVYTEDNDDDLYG

PLK1, sequence (P53350 whole entry): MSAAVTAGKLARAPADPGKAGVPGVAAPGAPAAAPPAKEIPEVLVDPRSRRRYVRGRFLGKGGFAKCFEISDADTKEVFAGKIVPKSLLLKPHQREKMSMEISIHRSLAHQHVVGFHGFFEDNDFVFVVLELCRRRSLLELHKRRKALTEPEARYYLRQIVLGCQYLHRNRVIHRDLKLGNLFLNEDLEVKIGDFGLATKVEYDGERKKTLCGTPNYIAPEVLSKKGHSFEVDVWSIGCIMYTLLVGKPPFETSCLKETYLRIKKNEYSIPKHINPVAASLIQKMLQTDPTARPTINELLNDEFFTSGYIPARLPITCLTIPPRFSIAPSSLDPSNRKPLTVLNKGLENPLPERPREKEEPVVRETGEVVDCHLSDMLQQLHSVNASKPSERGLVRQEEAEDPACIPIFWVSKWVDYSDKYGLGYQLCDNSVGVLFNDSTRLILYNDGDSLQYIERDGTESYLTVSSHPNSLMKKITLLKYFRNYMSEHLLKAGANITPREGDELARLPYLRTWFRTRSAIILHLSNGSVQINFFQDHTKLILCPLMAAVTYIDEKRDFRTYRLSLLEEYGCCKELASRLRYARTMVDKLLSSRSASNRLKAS

Q: With `C=CCNc1ncnc2ccc(Br)cc12` [SMER28] as the compound, how does the inhibition at 10 µM (PLK1) read?
A: Its inhibition at 10 µM is 11%.

Q: What about the inhibition at 10 µM (KIT) of the same compound?
A: The inhibition at 10 µM was 25%.

Q: What about the inhibition at 10 µM (PAK1) of the same compound?
A: The inhibition at 10 µM was 0%.

Q: And the inhibition at 10 µM (MST1R (RON))?
A: Its inhibition at 10 µM is -4%.

Q: And the inhibition at 10 µM (ROCK1)?
A: The inhibition at 10 µM was -13%.

Q: And the inhibition at 10 µM (NTRK1 (TRKA))?
A: Its inhibition at 10 µM is 33%.

Q: And the inhibition at 10 µM (YES1)?
A: The inhibition at 10 µM was 13%.

Q: And the inhibition at 10 µM (IGF1R)?
A: The inhibition at 10 µM was 12%.

Q: And the inhibition at 10 µM (MARK1 (MARK))?
A: The inhibition at 10 µM was 11%.

Q: What about the inhibition at 10 µM (MAPKAPK5 (PRAK)) of the same compound?
A: Its inhibition at 10 µM is 8%.

Q: What about the inhibition at 10 µM [1] of the same compound?
A: Its inhibition at 10 µM is 78%.

Q: And the inhibition at 10 µM (RET)?
A: Its inhibition at 10 µM is 25%.

Q: And the inhibition at 10 µM (ABL2 (Arg))?
A: The inhibition at 10 µM was 3%.

Q: What about the inhibition at 10 µM (RET V804M) of the same compound?
A: The inhibition at 10 µM was 38%.

Q: And the inhibition at 10 µM (JAK3)?
A: Its inhibition at 10 µM is 14%.

Q: And the inhibition at 10 µM (LCK)?
A: The inhibition at 10 µM was 19%.

Q: What about the inhibition at 10 µM (SGK (SGK1)) of the same compound?
A: Its inhibition at 10 µM is 15%.

Q: What about the inhibition at 10 µM (PDGFRB (PDGFR beta)) of the same compound?
A: The inhibition at 10 µM was 8%.

Q: What about the inhibition at 10 µM (AKT1 (PKB alpha)) of the same compound?
A: The inhibition at 10 µM was 3%.

Q: What about the inhibition at 10 µM (PAK4) of the same compound?
A: The inhibition at 10 µM was 0%.

Q: What about the inhibition at 10 µM (PIK3CG (p110 gamma)) of the same compound?
A: Its inhibition at 10 µM is 65%.

Q: And the inhibition at 10 µM (PRKCA (PKC alpha))?
A: Its inhibition at 10 µM is 10%.

Q: And the Kd [2]?
A: The Kd was about 750 nM.
